Tests used:
Rattus norvegicus = assay: Antiinflammatory activity in Sprague-Dawley rat assessed as dose required to produce 50% lymphopenia administered orally via gavage for 3 to 5 days measured 24 hrs post last dose; assay type: functional
[1] = Toxicity in Sprague-Dawley rat assessed as dose required to produce 10% increase in lung to terminal body weight ratio administered orally via gavage for 5 to 14 days measured 24 hrs post last dose; settings: in vivo, po
[2] = Therapeutic index, ratio of dose required to produce 10% increase in lung to terminal body weight ratio administered for 14 days to dose required to produce 50% lymphopenia in Sprague-Dawley rat; settings: in vivo, read-out: TI
[3] = biological target: Sphingosine 1-phosphate receptor 1 (Homo sapiens, UniProt P21453); assay: Agonist activity at human S1P1 expressed in CRE-bla CHOK1 cells assessed as inhibition of forskolin-induced cAMP formation preincubated for 4 hrs followed by FRET-based beta-lactamase fluorescent substrate addition measured after 2 hrs; assay type: functional, cell-based, CHO-K1
Mus musculus [4] = assay: Antiinflammatory activity in Influenza A virus (A/WSN/33) infected C57Bl/6 mouse model assessed as suppression of inflammatory cell infiltration into lungs at 0.5 mg/kg administered intratracheally 1 hr post viral infection measured after 48 hrs relative to control; assay type: functional; settings: C57Bl/6, inhaled or nasal
Mus musculus [5] = assay: Antiinflammatory activity in C57BL6 mouse assessed as induction of lymphopenia by measuring CD4 or CD8-positive T cell levels at 1 mg/kg, po administered via gavage measured over 24 hrs by FACS analysis relative to control; assay type: functional
[6] = Oral bioavailability in Sprague-Dawley rat at 2 mg/kg administered via gavage by HPLC-LC/MS/MS method; assay type: ADME, organism-based; settings: in vivo

Sequence of Sphingosine 1-phosphate receptor 1 (P21453 whole entry): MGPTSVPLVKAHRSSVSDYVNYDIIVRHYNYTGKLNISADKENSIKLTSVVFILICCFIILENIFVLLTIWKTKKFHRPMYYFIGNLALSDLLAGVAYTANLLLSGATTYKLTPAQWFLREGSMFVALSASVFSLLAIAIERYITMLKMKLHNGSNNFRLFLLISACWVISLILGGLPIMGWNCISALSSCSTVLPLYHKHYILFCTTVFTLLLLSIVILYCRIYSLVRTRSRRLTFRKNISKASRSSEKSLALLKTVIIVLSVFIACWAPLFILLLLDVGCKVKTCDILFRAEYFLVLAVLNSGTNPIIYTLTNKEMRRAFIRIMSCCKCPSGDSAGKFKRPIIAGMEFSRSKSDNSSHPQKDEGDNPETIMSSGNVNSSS

| Structure (SMILES) | Activity (Rattus norvegicus) [mg/kg] | Activity [1] [mg/kg] | further results |
| --- | --- | --- | --- |
| CC(C)Oc1ccc(-c2nc(-c3cccc4c3CC[C@@H]4NC(=O)N3CC(O)C3)no2)cc1C#N | 2 | 11.3 | – |
| CC(C)Oc1ccc(-c2nc(-c3cccc4c3CC[C@H]4NS(=O)(=O)CCO)no2)cc1C#N | 0.07 | 1.1 | – |
| CC(C)Oc1ccc(-c2nc(-c3cccc4c3CC[C@@H]4NS(=O)(=O)CCO)no2)cc1C#N | 0.5 | 5 | – |
| CC(C)Oc1ccc(-c2nc(-c3cccc4c3CC[C@@H]4N)no2)cc1C#N | 0.1 | 2 | – |
| CC(C)Oc1ccc(-c2nc(-c3cccc4c3CC[C@H]4N)no2)cc1C#N.Cl | 0.1 | 0.2 | selectivity ratio at 336 h [2]: 2 |
| CC(C)Oc1ccc(-c2nc(-c3cccc4c3CC[C@@H]4NC(=O)N(C)C)no2)cc1C#N | – | – | EC50 [3]: 50 to 500 pM |
| CC(C)Oc1ccc(-c2nc(-c3cccc4c3CC[C@H]4NC(=O)N3CC(O)C3)no2)cc1C#N | 0.9 | 21.3 | – |
| CC(C)Oc1ccc(-c2nc(-c3cccc4c3CC[C@H]4NCC(=O)N(C)C)no2)cc1C#N.Cl | 0.4 | 5.5 | – |
| CC(C)Oc1ccc(-c2nc(-c3cccc4c3CC[C@@H]4NCC(=O)N(C)C)no2)cc1C#N | 0.3 | 0.3 | – |
| CC(C)Oc1ccc(-c2nc(-c3cccc4c3CC[C@H]4NCC(=O)N3CCOCC3)no2)cc1C#N | – | – | EC50 [3]: 50 to 500 pM |
| COCCS(=O)(=O)N[C@H]1CCc2c(-c3noc(-c4ccc(OC(C)C)c(C#N)c4)n3)cccc21 | 0.25 | 5 | – |
| COCCS(=O)(=O)N[C@@H]1CCc2c(-c3noc(-c4ccc(OC(C)C)c(C#N)c4)n3)cccc21 | 0.07 | 2.1 | – |
| CC(C)Oc1ccc(-c2nc(-c3cccc4c3CC[C@H]4NC(=O)c3ccc(Br)cc3)no2)cc1C#N | – | – | EC50 [3]: > 5000 pM |
| CC(C)Oc1ccc(-c2nc(-c3cccc4c3CC[C@H]4NCCO)no2)cc1C#N | 0.15 | 2.8 | inhibition in vivo at 0.5 mg/kg (Mus musculus [4]): 40% |
| CCOc1ccc(-c2nc(-c3cccc4c3CCC4NCCO)no2)cc1OCC (racemic) | – | – | AUEC (Mus musculus [5]): 116%; bioavailability [6]: 21% |
| CC(C)Oc1ccc(-c2nc(-c3cccc4c3CC[C@@H]4NCCO)no2)cc1C#N [OZANIMOD] | 0.15 | 2.7 | – |
